Marks after values point to notes of the source that are not given here.
What was measured:
[1] = target: T1, hrPDE7A (Homo sapiens, UniProt Q13946); test: PDE-Glo Phosphodiesterase Assay, hrPDE7A; type: biochemical; conditions: cAMP substrate, read-out: IC50 PDE7A, Estimate (CV%)
T1 construct: purchased SignalChem, Richmond, Canada
Protocol: Inhibitory activity of the investigated and reference compounds against various subtypes of PDEs was analyzed using the PDE-Glo Phosphodiesterase Assay following the manufacturer’s instruction (Promega Corp., USA). […] The values of IC50, Imax, and γ parameters of the investigated and reference compounds were estimated using non-linear regression in Phoenix WinNonlin v. […] Each sample was performed in quadruplicate and the relative activity of each sample was calculated as E=sample activity/control activity·100% .
One and a half μL aliquots of PDE-Glo reaction buffer containing appropriate amounts of human recombinant PDE (hrPDE) 1B, 2A, 3A, 4B, 4D, 5A, 7A, or 10A (SignalChem, Richmond, Canada) were placed into separate wells of a 384-well plate (Thermo Scientific, USA). The investigated compounds were initially dissolved in DMSO and then a serial dilution with DMSO was performed. Each dilution was mixed with PDE-Glo reaction buffer at a ratio of 1:5 (v/v). Then, 1 μL of the solution containing a PDE inhibitor and 2.5 μL of the substrate solution were added to each well. cGMP was used as a substrate in the case of hrPDE2A and hrPDE5A, while cAMP for other types of hrPDEs. The samples were incubated for 10 min at 30°C. […] The luminescence of each sample was measured by a microplate reader POLARstar Omega (BMG LABTECH, Germany).

[2] = system: cAMP degradation; design: method as in PMID 28730281; conditions: rats, cAMP as a marker of pharmacological response ref [9]; cited from earlier work
[3] = design: method as in PMID 27065076; conditions: male Wistar rats; data already published ref [10]; cited from earlier work
[4] = Pharmacokinetics in male Wistar rats; type: in vivo, rat; conditions: for half-life: male rats (Wistar), IV, read-out: elimination half-life
Protocol: The same vehicles as these in pharmacodynamic studies for each compound and route of administration were used. Rats were implanted with catheters into the jugular vein and after a two-day period they were administered with the investigated compounds by the listed above routes of administration. […] Samples were subsequently centrifuged at 3000 × g for 10 min. Plasma was stored at −80°C until analysis.
A detailed description of these methods has been provided in the supplementary materials.
Firstly, the concentration-time data collected for each individual compound from one of the investigated rat strains (Wistar or Lewis) were subjected to a non-compartmental analysis (NCA). Subsequently, pharmacokinetic models were developed for each investigated compound and strain of rat. One- and two- compartment models with linear or non-linear elimination were tested. […] The final models were chosen based on the goodness-of-fit criteria, such as Akaike Information Criterion (AIC), Schwarz Bayesian Criterion (SBC), weighted sum of squared residuals (WSSR), a visual inspection of fitting, and precision of estimated parameters expressed as coefficients of variation % (CVs%). NCA analysis was performed in Phoenix WinNonlin v. 7.0 (Pharsight Corp., a Certara Company, Princeton, New Jersey). Pharmacokinetic model parameters were estimated in ADAPT 5 software (BMSR, Los Angeles, CA) using the weighted least squares algorithm. Fraction of the dose absorbed (F) following an extravascular (EV) administration was calculated according to the Eq. 4:4 F=AUC0−tEV·DIV/AUC0−tIV·DEV where AUC0-t is the area under concentration versus time curve from 0 to the last measured point and D is dose.
PK/PD and PK/PD/DIS progression models were developed considering the mechanism of action of the investigated compounds, the mechanisms of disease progression in the case of CIA, and the subsequent stages leading to TNF-α release in the case of LPS-induced endotoxemia. Various numbers of transit compartments were tested during development of the models, and the final models were chosen based on the goodness-of-fit criteria, such as AIC, SBC, a visual inspection of the fitting, and parameter precision. Estimated values of pharmacokinetic parameters were fixed during PK/PD and PK/PD/DIS progression model fitting procedures. […] PK/PD and PK/PD/DIS progression modeling were performed in ADAPT 5 software using the weighted least squares algorithm.
The applied model is a modified indirect response model ([19]) with implemented transit compartments (T1-T4) that describe the delay of the observed pharmacodynamic response. In this scheme τ is the mean transit time, kin is the time limited (from 0 to tlag) zero-order rate constant of production of a TNF-α precursor (e.g., TNF-α mRNA). […]

[5] = depending on the species; earlier study ref [37]; cited from earlier work
[6] = system: LPS-stimulated murine macrophages (RAW263.7 cells); design: method as in PMID 14998551; conditions: LPS-stimulated murine macrophage cell line ref [31]; read-out: IC50, TNF-α production; cited from earlier work

T1 sequence (Q13946 whole entry): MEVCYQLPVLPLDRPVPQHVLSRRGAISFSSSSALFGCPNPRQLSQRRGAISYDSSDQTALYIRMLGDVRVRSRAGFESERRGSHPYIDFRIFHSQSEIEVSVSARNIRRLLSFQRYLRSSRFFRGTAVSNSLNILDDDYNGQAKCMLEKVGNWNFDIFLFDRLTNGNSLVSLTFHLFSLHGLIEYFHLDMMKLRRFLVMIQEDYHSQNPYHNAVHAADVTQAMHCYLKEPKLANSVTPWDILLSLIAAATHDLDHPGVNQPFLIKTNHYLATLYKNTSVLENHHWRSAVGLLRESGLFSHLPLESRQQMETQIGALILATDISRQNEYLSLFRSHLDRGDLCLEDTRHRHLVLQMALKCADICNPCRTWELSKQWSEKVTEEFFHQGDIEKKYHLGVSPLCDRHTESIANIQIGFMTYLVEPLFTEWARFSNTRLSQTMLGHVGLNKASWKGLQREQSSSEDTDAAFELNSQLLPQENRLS

IC50 [1] [µM] | elimination rate constant, times lower than that of rolipram ([4]; compared to rolipram) | Vd ([4]; rat, plasma, male Wistar rats, GRMS-55 IV 20 mg kg^−1, 1-compartment model, read-out: V(GRMS-55), volume of distribution, Estimate (CV%)) [L/kg] | SMILES | IC50 value for the inhibition of cAMP degradation [2] [µg/mL] | VLSF, volume of distribution of (±)-LSF, Estimate (CV%) [3] | Vmax, maximal elimination rate constant of (±)-LSF, Estimate (CV%) [3] | half-life ([4]; rat, plasma) [min] | elimination half-life [5] [min] | IC50 [6] [µM]
297 | – | – | CC(O)CCCCn1c(=O)c2c(ncn2C)n(C)c1=O (racemic) [(±)-LSF, lisofylline] | 3.43 | 1.22 (3.4)^a L kg^−1 | 0.433 (56.9)^a mg min^−1 kg^−1 | – | – | –
– | approx. 2 times | 1.59 | Cn1c(=O)c2c(nc(NCCc3ccccc3)n2CCCC(=O)NN=Cc2ccccc2O)n(C)c1=O [GRMS-55, 4-(1,3-Dimethyl-2,6-dioxo-8-(phenethylamino)-2,3,6,7-tetrahydro-1H-purin-7-yl)-N′-(2-hydroxybenzylidene)butanehydrazide] | – | – | – | 22 | – | –
– | – | – | COc1ccc(C2CNC(=O)C2)cc1OC1CCCC1 (stereo not shown) [Rolipram, rolipram] | – | – | – | 11 | 60 to 180 | 0.0593

Reference: publication PMC6940354, “Comparative Assessment of the New PDE7 Inhibitor – GRMS-55 and Lisofylline in Animal Models of Immune-Related Disorders: A PK/PD Modeling Approach” (Pharmaceutical Research, 2020)
